Assay results reported in US9133437B2, “Cell proliferation-promoting peptide and use thereof” (TOAGOSEI CO. LTD., priority 2009, dated 2015).
Where no end group is shown, it is not given here.

System: Rat bone marrow stem cells (mesenchymal stem cells)
Assay: Cell proliferation-promoting activity, WST-8 colorimetry (OD450)
Format: cell-based
Conditions: WST-8, 2 hours; for OD450 day 4: four days from start of incubation; for OD450 day 4 / OD450 day 2: bFGF at 10 ng/mL; for OD450 Start: start of the incubation (day 0), 1×10^3 cells per well; for OD450 day 2: two days from start of incubation
Procedure: The cell proliferation-promoting peptides (Samples 1 to 8) obtained in Example 1 and the peptides composed of only a (A) part sequence (Samples 9 to 11) which had been prepared for comparison were evaluated, respectively, on the cell proliferation-promoting activity. Sample 12 was an experimental control where a commercial bFGF was used as the cell proliferation promoter. Sample 13 was an experimental control where no peptide was added (bFGF was not added, either). The evaluation assay is described in detail below. Each synthesized peptide sample was dissolved in PBS (phosphate buffered saline) to prepare a stock solution having a peptide concentration of 1 mM.
Rat bone marrow stem cells (mesenchymal stem cells) were used as the test cells. In particular, the test stem cells were subcultured in Dulbecco MEM (DMEM: a Gibco product) containing 10% fetal bovine serum (FBS: a Gibco product), 2 mM of L-glutamine, 50 unit/mL of penicillin, and 50 μg/mL of streptomycin. Passage 2 cells were used for the evaluation.
The test stem cells that had been pre-incubated overnight in the DMEM containing 10 ng/mL of bFGF were collected and seeded at 1×10^3 cells per well in a 96-well plate. The amount of the culture medium was […] per well.
Then, the stock solutions containing respective peptides of Samples 1 to 11 were added to some wells, one for each well. For comparison, a commercial bFGF (a PeproTech product) was added at a concentration of 10 ng/mL to some other wells (Sample 12). Similarly, yet some other wells were set up to not to contain any of the sample peptides or bFGF (Sample 13).
After a sample peptide or bFGF was added as described above, the 96-well plate was placed in a CO2 incubator and incubated standing at 37° C. and 5% CO2. Exchange of the culture medium was carried out every other day. The culture medium used for an exchange was the same as the culture medium used initially for the incubation (i.e., for the group containing a sample peptide or bFGF, the same sample peptide or bFGF was added to the exchanged culture medium).
During the course of this incubation assay, water-soluble tetrazolium salt (WST-8) was added to some wells as a staining reagent at the start of the incubation (day 0), when two days had passed from the start (day 2) and when four days had passed from the start (day 4). Incubated for 2 hours after the addition, the cell culture medium with the added staining reagent was collected. The level of cell proliferation was evaluated by colorimetry as optical density measured at 450 nm (OD450) based on reduction of the tetrazolium salt.

Substance | OD450 day 4 | OD450 Start | OD450 day 2
KKRTLRKNDRKKR (KKRTLRKNDRKKR-NH2) [Sample 9, reference compound] | 1.260 | 0.124 | 0.648
KKRTLRKNDRKKR LLGNSSPRTQSPQNC (KKRTLRKNDRKKRLLGNSSPRTQSPQNC-NH2) [Sample 3] | 2.289 | 0.124 | 1.177
KKRTLRKNDRKKR TLKERCLQVVRSLVK (KKRTLRKNDRKKRTLKERCLQVVRSLVK) [Sample 4] | 2.410 | 0.124 | 1.357
Sample 12: experimental control: commercial bFGF (basic fibroblast growth factor, a PeproTech product) at 10 ng/mL | 1.977 | 0.124 | 1.022
TLDGGDIINALCFS KKRTLRKNDRKKR (TLDGGDIINALCFSKKRTLRKNDRKKR-NH2) [Sample 2] | 2.259 | 0.124 | 1.133
TLKERCLQVVRSLVK KKRTLRKNDRKKR (TLKERCLQVVRSLVKKKRTLRKNDRKKR) [Sample 1] | 2.369 | 0.124 | 1.264
WRRQARFK TLKERCLQVVRSLVK (WRRQARFKTLKERCLQVVRSLVK) [Sample 6] | 2.365 | 0.124 | 1.181
WRRQARFK [Sample 11, reference compound] | 1.744 | 0.124 | 0.799
YARAAARQARA (YARAAARQARA-NH2) [Sample 10, reference compound] | 1.737 | 0.124 | 0.770
YARAAARQARA SLQYLCRFVIRQYTR (YARAAARQARASLQYLCRFVIRQYTR-NH2) [Sample 8] | 1.828 | 0.124 | 0.856
YARAAARQARA TLKERCLQVVRSLVK (YARAAARQARATLKERCLQVVRSLVK) [Sample 5] | 1.971 | 0.124 | 0.926
YGRKKRRQRRRTLKERCLQVVRSLVK (YGRKKRRQRRRTLKERCLQVVRSLVK-NH2) [Sample 7] | 2.279 | 0.124 | 1.340
